Like-named read-outs stand apart in the source and are kept apart here.
How the values were obtained:
[1] = system: H^+/OC antiporter; assay: Cellular uptake into hCMEC/D3 cells after intra- and extracellular pH manipulation; type: cell-based, human
[2] = In vivo brain distribution by neuropharmacokinetic assessment at steady state; set-up: species or system mice; conditions: for Kp at 2 h / concentration at 2 h: male, mouse; for Kp at 2 h: brain and plasma
Procedure: Male Abcb1a/Abcb1b-eKO1 (P-gp knockout) mice and FVB wild-type counterparts (18–24 g at arrival) were obtained from Shanghai Biomodel Organism Science & Technology Development Co. Ltd (Shanghai, China). […] Animals were housed in pairs in a temperature-controlled environment (20–24 °C) with lighting maintained under a 12-h light–dark cycle. Animals were habituated for at least seven days prior to surgery with free access to food and water.
In vivo experiments were conducted to assess the extent of the BBB transport of eletriptan and to elucidate the involvement of active transport processes. All mice were cannulated in the jugular vein for intravenous drug administration. Following surgery, the animals were allowed to recover for 3 days before administration of test compounds. Eletriptan HBr was dosed in P-gp knockout and wild type mice using a loading dose of 2 mg/kg (as bolus) followed by a 2-h constant rate infusion of 3 mg/kg (1.5 mg/kg/h) dissolved in 0.9% NaCl. […] Throughout all studies a dose volume of 10 mL/kg was applied. Serial blood samples were taken from the saphenous vein during the infusion to verify steady state and at the end of infusion. Terminal blood samples were collected from all animals. Brain samples were prepared by homogenization using ultrasonication as described previously [39] and analyzed together with the plasma samples using LC–MS/MS [39].
The total brain and plasma concentration partition coefficient (Kp) was calculated from Eq. 7.7 Kp=Ctot,brain,ss/Ctot,plasma,ss where Ctot,brain,ss and Ctot,plasma,ss is the total drug concentration at steady state in brain and plasma, respectively.
The unbound brain and plasma partition coefficient (Kp,uu) was derived from dividing the unbound brain concentration with the unbound plasma concentration at the end of infusion for each animal. The Kp,uu was calculated from Eq. 8.8 Kp,uu=Ctot,brain,ss·fu,brain/Ctot,plasma,ss·fu,plasma where fu,brain and fu,plasma is the fraction of unbound drug in the brain and plasma, respectively.

[3] = system: P-gp; set-up: method as in PMID 12814962; conditions: brain Kp in wild type and mdr1a knockout mice; cited from earlier work
[4] = in vitro; conditions: C57, mouse, plasma
Source text: C57 mice were used to prepare blank plasma and brain matrices throughout all binding studies.

[5] = pH 7.4; cited from earlier work
[6] = molecular target: P-gp (Homo sapiens, UniProt P08183); set-up: expressed in transfected cells; host or cells: IPEC-J2 (porcine ileum epithelial cell line); method as in PMID 12438524; conditions: MDR1-MDCKII cell line; cited from earlier work
Sequence of P-gp (Homo sapiens, UniProt P08183) (P08183 whole entry): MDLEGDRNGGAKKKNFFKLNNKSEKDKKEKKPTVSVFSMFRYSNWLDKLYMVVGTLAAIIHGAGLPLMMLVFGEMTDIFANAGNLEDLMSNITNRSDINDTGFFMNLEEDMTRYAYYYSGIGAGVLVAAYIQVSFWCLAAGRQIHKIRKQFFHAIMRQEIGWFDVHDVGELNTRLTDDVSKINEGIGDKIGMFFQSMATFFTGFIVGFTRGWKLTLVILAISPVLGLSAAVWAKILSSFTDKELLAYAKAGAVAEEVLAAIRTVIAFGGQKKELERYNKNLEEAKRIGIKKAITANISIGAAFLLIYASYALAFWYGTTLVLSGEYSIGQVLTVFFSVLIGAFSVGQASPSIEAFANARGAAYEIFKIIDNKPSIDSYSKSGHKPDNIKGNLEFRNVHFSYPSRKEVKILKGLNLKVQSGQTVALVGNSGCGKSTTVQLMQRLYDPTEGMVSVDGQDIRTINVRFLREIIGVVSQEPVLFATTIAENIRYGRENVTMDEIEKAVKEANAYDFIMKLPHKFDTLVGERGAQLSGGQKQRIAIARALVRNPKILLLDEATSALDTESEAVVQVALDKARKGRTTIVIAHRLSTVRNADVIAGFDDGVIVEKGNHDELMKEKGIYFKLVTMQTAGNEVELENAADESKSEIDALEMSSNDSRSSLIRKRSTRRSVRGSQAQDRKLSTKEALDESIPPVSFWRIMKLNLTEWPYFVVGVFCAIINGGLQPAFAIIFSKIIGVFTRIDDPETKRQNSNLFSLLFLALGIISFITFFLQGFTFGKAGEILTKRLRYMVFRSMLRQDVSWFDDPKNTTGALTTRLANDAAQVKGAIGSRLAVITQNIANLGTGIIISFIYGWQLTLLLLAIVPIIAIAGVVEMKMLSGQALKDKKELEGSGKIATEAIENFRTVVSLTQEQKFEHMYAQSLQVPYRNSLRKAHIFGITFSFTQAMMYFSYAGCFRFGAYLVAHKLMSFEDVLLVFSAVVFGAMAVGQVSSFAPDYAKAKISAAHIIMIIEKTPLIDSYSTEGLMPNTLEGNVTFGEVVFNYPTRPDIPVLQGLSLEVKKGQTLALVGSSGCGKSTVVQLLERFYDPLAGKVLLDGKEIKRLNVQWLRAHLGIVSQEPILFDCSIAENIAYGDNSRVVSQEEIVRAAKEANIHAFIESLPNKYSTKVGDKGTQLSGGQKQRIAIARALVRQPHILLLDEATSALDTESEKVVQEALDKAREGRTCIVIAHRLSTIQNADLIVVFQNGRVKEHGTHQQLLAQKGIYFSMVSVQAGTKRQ

With `CN1CCC[C@@H]1Cc1c[nH]c2ccc(CCS(=O)(=O)c3ccccc3)cc12` [Eletriptan] the “Cellular uptake after intracellular alkalization” value ([1]; acute exposure to 30 mM NH4Cl vs control pH 7.4) was “decreased”, the “Cellular uptake at extracellular acidification” value ([1]; extracellular pH 6.8 vs pH 7.4) was “did not affect” and the “Cellular uptake at extracellular alkalization” value ([1]; extracellular pH 8.2 vs pH 7.4) was “slight decrease”. For the same compound, the “Proton-gradient dependence of uptake” value ([1]; hCMEC/D3 cells) was “yes”, the “Cellular uptake after intracellular acidification” value ([1]; preexposure to 30 mM NH4Cl followed by media change vs control) was “statistically significant increase” and the “Increase of brain uptake (Kp, Kp,uu) in mdr1a/1b knockout vs wild type mice” value ([2]; knockout vs wild type) was > 30 fold. For the same compound, the Kp at 2 h ([2]; Abcb1a/Abcb1b-eKO1 (P-gp knockout), intravenous, mdr1a/1b knockout mice, steady state, read-out: Kp (C,brain/C,plasma)) was 6.35 ± 0.91, the Kp at 2 h ([2]; Abcb1a/Abcb1b-eKO1 (P-gp knockout), intravenous, mdr1a/1b knockout mice, steady state, read-out: Kp,uu (C,brain·fu,brain)/C,plasma·fu,plasma)) was 1.32 and the concentration at 2 h ([2]; Abcb1a/Abcb1b-eKO1 (P-gp knockout), brain, intravenous, mdr1a/1b knockout mice, steady state, read-out: C,brain) was 1450 ± 175 ng/mL. For the same compound, the concentration at 2 h ([2]; Abcb1a/Abcb1b-eKO1 (P-gp knockout), plasma, iv, mdr1a/1b knockout mice, steady state, 2-h i.v. infusion, read-out: C,plasma) was 229 ± 6 ng/mL, the concentration at 2 h ([2]; FVB (wild type and Abcb1a/Abcb1b knockout), plasma, intravenous, bolus dose followed by 2-h constant infusion, read-out: Plasma concentrations at steady state) was 259 ± 30 ng/mL and the Kp at 2 h ([2]; FVB wild-type (eletriptan), C57BL/6N (diphenhydramine), intravenous, wild type mice, steady state, read-out: Kp (C,brain/C,plasma)) was 0.17 ± 0.016. For the same compound, the Kp at 2 h ([2]; FVB wild-type (eletriptan), C57BL/6N (diphenhydramine), intravenous, wild type mice, steady state, read-out: Kp,uu (C,brain·fu,brain)/C,plasma·fu,plasma)) was 0.04, the concentration at 2 h ([2]; FVB wild-type (eletriptan), C57BL/6N (diphenhydramine), brain, intravenous, wild type mice, steady state, read-out: C,brain) was 41 ± 5 ng/mL and the concentration at 2 h ([2]; FVB wild-type (eletriptan), C57BL/6N (diphenhydramine), plasma, iv, wild type mice, steady state, 2-h i.v. infusion, read-out: C,plasma) was 240 ± 18 ng/mL. The P-gp substrate [3] was “substrates of P-gp”, the fraction unbound at 1 µM ([4]; fu,brain) was 0.083 and the fraction unbound at 1 µM ([4]; fu,plasma) was 0.4. The “cLogD pH 7.4” value [5] was 1.1 and the ER [6] was 44.7.
